Experimental data published in ChEMBL document CHEMBL1141654, “Protective effects of amide constituents from the fruit of Piper chaba on D-galactosamine/TNF-alpha-induced cell death in mouse hepatocytes” (2008).

How the values were obtained:
Type in all cases: functional
Hepatocyte [1] = assay: Inhibition of D-galactosamine/TNFalpha-induced cell death in ddY mouse hepatocytes at 1 uM after 20 hrs by MTT assay
Hepatocyte [2] = assay: Inhibition of D-galactosamine/TNFalpha-induced cell death in ddY mouse hepatocytes at 3 uM after 20 hrs by MTT assay
Hepatocyte [3] = assay: Inhibition of D-galactosamine/TNFalpha-induced cell death in ddY mouse hepatocytes at 10 uM after 20 hrs by MTT assay
Hepatocyte [4] = assay: Inhibition of D-galactosamine/TNFalpha-induced cell death in ddY mouse hepatocytes at 30 uM after 20 hrs by MTT assay
Mus musculus [5] = assay: Inhibition of D-galactosamine/LPS-induced liver injury in ddY mouse assessed as serum GOT level at 10 mg/kg, po
Mus musculus [6] = assay: Inhibition of D-galactosamine/LPS-induced liver injury in ddY mouse assessed as serum GPT level at 10 mg/kg, po
Mus musculus [7] = assay: Inhibition of D-galactosamine/LPS-induced TNFalpha level in ddY mouse serum at 10 mg/kg, po by ELISA
Hepatocyte [8] = assay: Inhibition of D-galactosamine/TNFalpha-induced cell death in ddY mouse hepatocytes assessed as cell viability at 30 uM after 20 hrs by MTT assay; settings: read-out: Activity
Hepatocyte [9] = assay: Inhibition of D-galactosamine/TNFalpha-induced cell death in ddY mouse hepatocytes assessed as cell viability at 100 uM after 20 hrs by MTT assay; settings: read-out: Activity
Hepatocyte [10] = assay: Inhibition of D-galactosamine-induced cell death in ddY mouse hepatocytes assessed as cell viability at 10 uM after 44 hrs by MTT assay; settings: read-out: Activity
Hepatocyte [11] = assay: Inhibition of D-galactosamine-induced cell death in ddY mouse hepatocytes assessed as cell viability at 30 uM after 44 hrs by MTT assay; settings: read-out: Activity
Hepatocyte [12] = assay: Inhibition of D-galactosamine-induced cell death in ddY mouse hepatocytes assessed as cell viability at 100 uM after 44 hrs by MTT assay; settings: read-out: Activity
L929 [13] = assay: Inhibition of TNF-alpha-induced cell death in […] assessed as cell viability at 10 uM after 20 hrs by MTT assay; settings: L929, 20 h, read-out: Activity
L929 [14] = assay: Inhibition of TNF-alpha-induced cell death in […] assessed as cell viability at 30 uM after 20 hrs by MTT assay; settings: L929, 20 h, read-out: Activity
L929 [15] = assay: Inhibition of TNF-alpha-induced cell death in […] assessed as cell viability at 100 uM after 20 hrs by MTT assay; settings: L929, 20 h, read-out: Activity
Mus musculus [16] = assay: Inhibition of D-galactosamine/LPS-induced liver injury in ddY mouse assessed as serum GOT level at 2.5 mg/kg, po
Mus musculus [17] = assay: Inhibition of D-galactosamine/LPS-induced liver injury in ddY mouse assessed as serum GOT level at 5 mg/kg, po
Mus musculus [18] = assay: Inhibition of D-galactosamine/LPS-induced liver injury in ddY mouse assessed as serum GPT level at 2.5 mg/kg, po
Mus musculus [19] = assay: Inhibition of D-galactosamine/LPS-induced liver injury in ddY mouse assessed as serum GPT level at 5 mg/kg, po
Mus musculus [20] = assay: Inhibition of D-galactosamine/LPS-induced TNFalpha level in ddY mouse serum at 5 mg/kg, po by ELISA
Mus musculus [21] = assay: Inhibition of D-galactosamine/LPS-induced TNFalpha level in ddY mouse serum at 20 mg/kg, po by ELISA
Hepatocyte [22] = assay: Inhibition of D-galactosamine/TNFalpha-induced cell death in ddY mouse hepatocytes assessed as cell viability at 10 uM after 20 hrs by MTT assay; settings: read-out: Activity

SMILES | inhibition at 1 µM (Hepatocyte [1]) [%] | inhibition at 3 µM (Hepatocyte [2]) [%] | inhibition at 10 µM (Hepatocyte [3]) [%] | inhibition at 30 µM (Hepatocyte [4]) [%] | further results
CCCCC/C=C\CCCCCCCC/C=C/C=C/C(=O)NCC(C)C | 10 | 3 | 19 | 27 | 
CCCCCCCCCCCCC/C=C/C=C/C(=O)NCC(C)C | 15 | 37 | 41 | 43 | 
CCCCCCC/C=C/C=C/C(=O)NCC(C)C | 12 | 21 | 31 | 44 | 
CC(C)CNC(=O)/C=C/CCc1ccc2c(c1)OCO2 [4,5-DIHYDROPIPERLONGUMININE] | 34 | 43 | 43 | 66 | 
CC(C)CNC(=O)/C=C/C=C/CCCCCCCC/C=C/c1ccc2c(c1)OCO2 [BRACHYSTAMIDE B] |  | 22 | 11 | -6 | 
CC(C)CNC(=O)/C=C/C=C/CCCCCC/C=C/c1ccc2c(c1)OCO2 [GUINEENSINE] |  | 26 | 33 | 12 | 
C[C@]12CCC(=O)C=C1CC[C@@H]1[C@@H]2[C@@H](O)C[C@@]2(C)[C@H]1CC[C@]2(O)C(=O)CO [HYDROCORTISONE] |  |  |  |  | inhibition in vivo at 10 mg/kg (Mus musculus [5]): 94.2%; inhibition in vivo at 10 mg/kg (Mus musculus [6]): 97.7%; inhibition in vivo at 10 mg/kg (Mus musculus [7]): 92.1%
COC(=O)/C=C/C=C/c1ccc2c(c1)OCO2 [METHYL PIPERATE] |  | 18 | 29 | 21 | 
CCCCC/C=C/C=C/C(=O)NCC(C)C [PELLITORIN] |  | 19 | 25 | 42 | 
O=C(/C=C/CCc1ccc2c(c1)OCO2)N1CCCCC1 [PIPERANINE] |  | 31 | 50 | 53 | 
O=C1C=CCCN1C(=O)CCc1ccccc1 [PIPERCHABAMIDE A] |  | 29 | 32 | 70 | 
O=C(/C=C/CCCCCC/C=C/c1ccc2c(c1)OCO2)N1CCCCC1 [PIPERCHABAMIDE B] |  | 63 | 74 | 78 | 
O=C(/C=C/C=C/CCCCCC/C=C/c1ccc2c(c1)OCO2)N1CCCCC1 [PIPERCHABAMIDE C] |  | 42 | 52 | 68 | 
CC(C)CNC(=O)/C=C/CCCCCC/C=C/c1ccc2c(c1)OCO2 [PIPERCHABAMIDE D] |  | 57 | 77 | 37 | 
CCC(C)CNC(=O)/C=C/C=C/c1ccc2c(c1)OCO2 (stereo not given) [PIPERCHABAMIDE E] |  | 34 | 71 | 98 | 
O=C(/C=C/C=C/c1ccc2c(c1)OCO2)N1CCCCC1 [PIPERINE] |  | 23 | 46 | 68 | viability at 30 µM (Hepatocyte [8]): 76.1%; viability at 100 µM (Hepatocyte [9]): 84.3%; viability at 10 µM (Hepatocyte [10]): 40.6%; viability at 30 µM (Hepatocyte [11]): 36.5%; viability at 100 µM (Hepatocyte [12]): 29.2%; viability at 10 µM (L929 [13]): 64%; viability at 30 µM (L929 [14]): 66.2%; viability at 100 µM (L929 [15]): 92.2%; inhibition in vivo at 2.5 mg/kg (Mus musculus [16]): 0.3%; inhibition in vivo at 5 mg/kg (Mus musculus [17]): 50.7%; inhibition in vivo at 10 mg/kg (Mus musculus [5]): 96.1%; inhibition in vivo at 2.5 mg/kg (Mus musculus [18]): 23.2%; inhibition in vivo at 5 mg/kg (Mus musculus [19]): 51.1%; inhibition in vivo at 10 mg/kg (Mus musculus [6]): 94.3%; inhibition in vivo at 5 mg/kg (Mus musculus [20]): 15.7%; inhibition in vivo at 10 mg/kg (Mus musculus [7]): 9.2%; inhibition in vivo at 20 mg/kg (Mus musculus [21]): -2.2%; viability at 10 µM (Hepatocyte [22]): 72.4%
CC(C)CNC(=O)/C=C/C=C/c1ccc2c(c1)OCO2 [PIPERLONGUMININE] | 27 | 50 | 54 | 66 | 
O=C(/C=C/CCCC/C=C/c1ccc2c(c1)OCO2)N1CCCCC1 [PIPERNONALINE] |  | 17 | 31 | 48 | 
O=Cc1ccc2c(c1)OCO2 [PIPERONAL] |  | 20 | 23 | 39 | 
O=C(CCCCCC/C=C/c1ccc2c(c1)OCO2)N1CCCCC1 [PIPERROLEIN B] | 20 | 29 | 33 | 64 | 
O=C(/C=C/C=C/CCCC/C=C/c1ccc2c(c1)OCO2)N1CCCCC1 [PIPERUNDECALIDIENE] | 27 | 40 | 49 | 58 | 
CC(C)CNC(=O)/C=C/C=C/CC/C=C/c1ccc2c(c1)OCO2 [RETROFRACTAMIDE A] | 40 | 32 | 35 | 60 | 
CC(C)CNC(=O)/C=C/C=C/CCCC/C=C/c1ccc2c(c1)OCO2 [RETROFRACTAMIDE B] | 32 | 54 | 51 | 26 | 
CC(C)CNC(=O)/C=C/CCCC/C=C/c1ccc2c(c1)OCO2 [RETROFRACTAMIDE C] | 30 | 51 | 31 | 37 | 
